How the values were obtained:
[1] = Relative bioavailability of voxilaprevir amorphous free acid tablets vs Form VI tablets, fasted and fed, healthy subjects (Table 3); format: in vivo, human
Description: Accordingly, a spray dried dispersion of voxilaprevir in the amorphous free acid form was selected for incorporation into the tablet formulation.

[2] = Physical stability of tablets spiked with crystalline voxilaprevir Form VIII and Form X (Tables 22, 23); format: physicochemical; conditions: in tablets in the presence of pre-existing crystalline voxilaprevir
Experimental: For each of the impact studies, the sofosbuvir/velpatasvir SSD/voxilaprevir SSD tablets were packaged in a designated commercial packaging configuration (28-count, 100 mL HPDE bottle, coil, 1 g desiccant), and stored for 12 weeks at 25° C./60% RH and 40° C./75% RH. Tablets were also packaged in open containers (28-count, 100 mL HPDE bottle without cap) and stored for 4 weeks at 40° C./75% RH and for 1 week at 50° C./92% RH.
The impact of crystalline voxilaprevir Form VIII and Form X seeds on the physical stability and dissolution of sofosbuvir/velpatasvir SSD/voxilaprevir SSD tablets was evaluated (Tables 22 and 23). As described in Table 22, sofosbuvir/velpatasvir SSD/voxilaprevir SSD tablets Lots A and B were spiked with 5 and 10% w/w Form VIII (% w/w with respect to total voxilaprevir), respectively. Sofosbuvir/velpatasvir SSD/voxilaprevir SSD tablets Lots C and D, as described in Table 23, were spiked with 10 and 20% w/w Form X (% w/w with respect to total voxilaprevir), respectively.

[3] = Aqueous solubility of voxilaprevir Form VIII relative to Form VI; format: physicochemical
[4] = 100 mg tablets, healthy subjects

| higher Cmax compared to Form VI tablets (2×50 mg) [1, 4] [%] | higher exposure (AUC) compared to Form VI tablets (2×50 mg) [1, 4] | Cmax ([1]; single dose 100 mg, healthy subjects, fed (with moderate food)) [ng/mL] | Geometric Least Square Ratio Amorphous Free Acid/Form VI GMR, AUCinf ([1]; single dose, fasted) | Geometric Least Square Ratio Amorphous Free Acid/Form VI GMR, Cmax ([1]; single dose, fasted) | aqueous solubility, less than that of crystalline Form VI [3] | SMILES | tendency to crystallize [2] |
| --- | --- | --- | --- | --- | --- | --- | --- |
| ~43 | approximately 9% | 44.2 | 1.09 | 1.43 |  | CC[C@@H]1[C@@H]2CN(C(=O)[C@H](C(C)(C)C)NC(=O)O[C@@H]3C[C@H]3CCCCC(F)(F)c3nc4ccc(OC)cc4nc3O2)[C@@H]1C(=O)N[C@]1(C(=O)NS(=O)(=O)C2(C)CC2)C[C@H]1C(F)F [Amorphous Free Acid, voxilaprevir] | no tendency to crystallize |
|  |  |  |  |  | approximately 50% | CC[C@@H]1[C@@H]2CN(C(=O)[C@H](C(C)(C)C)NC(=O)O[C@@H]3C[C@H]3CCCCC(F)(F)c3nc4ccc(OC)cc4nc3O2)[C@@H]1C(=O)N[C@]1(C(=O)NS(=O)(=O)C2(C)CC2)C[C@H]1C(F)F [Form VIII, voxilaprevir] |  |
|  |  |  |  |  |  | COC[C@H]1C[C@@H](c2ncc(-c3ccc4c(c3)COc3cc5c(ccc6nc([C@@H]7CC[C@H](C)N7C(=O)[C@@H](NC(=O)OC)C(C)C)[nH]c65)cc3-4)[nH]2)N(C(=O)[C@H](NC(=O)OC)c2ccccc2)C1 [amorphous velpatasvir free base, velpatasvir] | no tendency to crystallize |
